Columns and labels:
Format in all cases: cell-based, human
[1] = system: neutrophils; experiment: Neutrophil activation: CD16 surface marker fluorescence (channel 2 FL2-A)
Description: Dead cells were gated and removed using PI(+) viability marker. The cell surface marker CD33 was used to distinguish the lymphocyte population from the monocyte and granulocyte populations. The cell surface marker CD16 was used to distinguish neutrophil and eosinophil populations from the monocytes and lymphocyte populations. The cell surface marker CD123 was used to distinguish the basophil population. Activated granulocytes were observed using the granulocyte activation surface marker CD63(+). Activated basophil and eosinophil populations were observed using surface markers […], in-tandem with CD63(+). Activated basophils were observed using the surface marker profile of CD63(+)/CD203c(+). Activated eosinophils were observed using the surface marker profile of CD63(+)/CD193(+)/CD203c(+). Activated neutrophils were observed using the surface marker profile of CD63(+)/CD193(−)/CD203(−). Activation of subpopulations was quantified as fold-change compared to the mean of the negative control samples.
Activation of neutrophils from human blood samples following exposure to exogenous stimulants was investigated using flow cytometry analysis of R123 fluorescence, as well as cell surface markers CD16, CD193, and CD123, and side scattering profiles. Density plots for RH 123 (channel 1; FL1-A), CD16 (channel 2; FL2-A), CD193 (channel 3, FL3-A), and CD123 (channel 4, FL4-A) following exposure to dust mite stimulant for 1.5 hours are shown in FIGS. 19A-19L (DHR 123 only: FIGS. 19A-19D; DHR 123+PMA stimulant: FIGS. 19E-19H; and DHR 123+DM stimulant: FIGS. 19I-19L). […] Histograms of CD16 fluorescence at 1.5 hours after stimulant exposure are shown in FIGS. 20A-20C (DHR 123 control: FIG. 20A, MFI=27956; DHR 123+PMA stimulant: FIG. 20B, MFI=11120; and DHR 123+DM stimulant: FIG. 20C, MFI=16358). […]

[2] = system: basophils; experiment: Basophil activation: RH 123 signal in CD123(+)/CD16(-) gated cells
Description: Activation of basophils from human blood samples following exposure to exogenous stimulants was investigated using flow cytometry analysis of RH 123 fluorescence, as well as cell surface markers CD16 and CD193, and side scattering profiles. CD123 is a cell surface marker that is expressed on basophils and eosinophils. FIGS. 25A-25C show density plots of CD123 signals at channel 4 (FL4-A) for DHR 123 only (FIG. 25A), DHR 123+PMA stimulant (FIG. 25B), and DHR 123+DM stimulant exposed group (FIG. 25C) following exposure to stimulant for 1.5 hours. FIGS. 25D-25F show corresponding gated RH 123 results (MFI=2055, MFI=6388, and MFI=3023, respectively). FIGS. 26A-26C show density plots of CD123 signals at channel 4 (FL4-A) for DHR 123 control group (FIG. 26A), DHR 123 and dust mite stimulant-exposed group (FIG. 26B), and DHR 123 and ragweed pollen stimulant-exposed group (FIG. 26C) following exposure to stimulant for 2.5 hours. FIGS. 26D-26F show corresponding gated RH 123 results (MFI=1800, MFI=3299, and MFI=1270, respectively).
Basophil population was selected by having CD123(+)/CD16(−) expression profiles, along with lower side scattering (shown in FIGS. 25A-25C and FIGS. 26A-26C as encircled). In contrast to reducing eosinophil population for different allergen treated groups, basophil population appeared stable over the experiment time period (1.5 hours and 2.5 hours).

[3] = system: granulocytes; experiment: Citrullinated histone H3 flow cytometry blood test (extracellular trap formation)
Description: Detection of extracellular traps formation was incorporated to improve flow cytometry analysis of granulocyte subpopulations. […] This example describes detection of granulocyte activation following exposure of human blood to exogenous stimulant, using dihydrorhodamine 123, propidium iodide, and citrullinated histone H3 staining.
Peripheral blood samples were collected, diluted, maintained, treated, lysed, and fixed as previously described. Samples were blocked as previously described and incubated with staining buffer containing a 1:400 dilution of Cit-H3 antibody (Cayman Chemical, Michigan, USA) for 30 min at RT. Following two wash steps, the samples were incubated with APC-conjugated secondary (1:200) (Columbia Biosciences, Maryland, USA) for 30 min and subsequent washing steps were performed to remove unbound antibodies. Cells were washed twice and resuspended in PBS prior to analysis using a BD Accuri C6 Flow Cytometer (BD Biosciences). Statistical analysis was performed using the FlowJo v10 (FlowJo). NETs were defined by the in-tandem use of the classis extracellular DNA/viability marker PI(+) and the extracellular trap marker Cit-H3(+). NET formation was quantified as a fold-change relative to the mean of the negative control samples.

[4] = 1-3 hr incubation, DHR 123 and PMA

CCCCCCCCCCCCCC(=O)O[C@@H]1[C@@H](C)[C@@]2(O)[C@@H](C=C(CO)C[C@]3(O)C(=O)C(C)=C[C@@H]23)[C@@H]2C(C)(C)[C@]12OC(C)=O [PMA, Phorbol-12-Myristate-13-Acetate]
CD16 fluorescence signal intensity over time [1, 4]: decreased signal intensity over time
expression of CD16 surface marker (in words) ([1]; 1.5 hours after stimulant exposure): greatly reduced
mean fluorescent intensity (MFI) of CD16 surface marker (channel 2; FL2-A) ([1]; 1.5 hours exposure, DHR 123 only control MFI=27956): 11120
CD123 signal over incubation time [2, 4]: decreased
gated RH 123 signal MFI, CD123 gated ([2]; 1.5 hours exposure, DHR 123 only control MFI=2055): 6388
basophil activation (in words) ([2]; RH 123 signal vs DHR 123 only control): induced the activation of basophils
RH 123 (FL1-A) and PI (FL3-A) fluorescence signal compared with cell-only group [3]: higher
percentage cells positive for citrullinated histone H3 signals ([3]; after gating on FL3-A and FL4-A): high
PI staining signal (channel 3, FL3-A) ([3]; repeat, 8 μL stimulant/100 μL blood): stronger signals

From patent US20250327794A1, “FLUOROMETRIC METHODS FOR DETECTION OF ALLERGIC SENSITIVITY TO ENVIRONMENTAL, FOODSTUFF, AND MEDICAMENT STIMULANTS” (CELL SCIENCE SYSTEMS CORPORATION, priority 2022, published 2025)
